What all share (format): cell-based, Mycobacterium abscessus
Assay [1] relates to M. abscessus subsp. abscessus K21. Description: MIC assay, clinical isolate K21. The following applies: 90% inhibition of bacterial growth.
The test system of assay [2] is M. abscessus Bamboo. The assay is described as follows: Broth MBC90 (bMBC90). Conditions: broth, 5 days. The source says:
Broth MIC, broth MBC90 (bMBC90), and caseum surrogate MBC90 ([…]) of clinically used antibiotics and of novel ADP-ribosylation-resistant rifabutin analogs against M. abscessus Bamboo have been evaluated.

Assay [3] has as its system M. abscessus Bamboo. The assay is described as follows: MIC assay, clinical isolate Bamboo.
Assay [4] deals with M. abscessus Bamboo. Description: Caseum surrogate MBC90 (cMBC90) kill assay.
Source text: (§1) The surrogate matrix was generated as described previously from cultured THP-1 cells (ATCC TIB-202) (mBio, 2023, 14, e0059823). M. abscessus exponential cultures grown in Middlebrook 7H9 broth (Sigma Aldrich) (OD600 0.6-0.9) were spun down and resuspended in water to an OD600 of 7, 0.7, and 0.07. As described for the M. tuberculosis caseum surrogate assay (mnBio, 2023, 14, e0059823), the bacterial suspensions (at three different dilutions resulting in ˜10^9, 10^8, and 10^7 starting CFU/mL, represented by circle, square, and triangle indicators respectively) were added to the caseum surrogate in the ratio 2:1 (vol/wt), briefly homogenized with 1.4-mm zirconia beads, divided evenly into nine 1.5-mL microcentrifuge tubes, and incubated as standing cultures at 37° C. At the indicated time points, tubes were removed and used for CFU enumeration by plating on Middlebrook 7H11 agar (Sigma Aldrich). Separate tubes were used at each time point. To determine the kill curves, cultures with a starting CFU/mL of 10^8 were used (resulting in the middle curve with square indicators). Arrows indicate the time points when drugs were added and the end of the treatment. The experiment was repeated three times independently, yielding similar results. A representative example is shown. Dots and error bars represent means and standard deviations of three technical replicates, respectively.
FIGS. 29A-29M show the Dose-response kill curves against M. abscessus Bamboo in caseum surrogate. M. abscessus cultures were set up as described in the legend of FIG. 28. Bacterial cell suspensions were added to yield a starting CFU of 10^8/mL (FIG. 28, middle growth curve with square indicators). […] The shaded areas indicate drug concentration windows achieved in caseum in vivo. (Antimicrob. Agents Chemother., 2021, 65, e0050621; Antimicrob. Agents Chemother., 2022, 66, e0221221; PLoS Med., 2019, 16, e1002773; ACS Infect. Dis., 2016, 2, 251-267). The experiment was repeated twice independently, yielding similar results. A representative example is shown. Dots and error bars represent means and standard deviations of three technical replicates, respectively. Horizontal dotted lines indicate the cutoff for 1 log reduction in CFU compared to 10-day drug-free control culture. The cMBC90 values shown in Table 16 are the drug concentrations that reduce CFU by 90% relative to the CFU of drug-free controls at day 10. Since the cultures were in the stationary phase on day 5 when drug treatment started, the CFUs of the drug-free cultures at day 10 were similar to the CFUs of the drug-free cultures at day 5 (FIG. 28).
as §1, with “(doi: 10.1128/mbio.00598-23).” for “(mBio, 2023, 14, e0059823).”, “(doi: 10.1128/mbio.00598-23),” for “(mnBio, 2023, 14, e0059823),”, “CFU/mL)” for “CFU/mL, represented by circle, square, and triangle indicators respectively)”, “curves for the drugs,” for “curves,”, “used.” for “used (resulting in the middle curve with square indicators). Arrows indicate the time points when drugs were added and the end of the treatment.”, “results.” for “results. A representative example is shown. Dots and error bars represent means and standard deviations of three technical replicates, respectively.”
The experiment was repeated twice independently, yielding similar results. A representative example is shown. The cMBC90 values shown in Table 16 are the drug concentrations that reduce CFU by 90% relative to the CFU of drug-free controls at day 10. […]

The subject of the next assay is RFB-R1 M. abscessus. The assay is described as follows: microbe, parasite or virus in culture.
Another assay has as its system M. abscessus ATCC 19977. Description: MIC assay in 96-well plate format, wild-type strain. An outline of the steps: (§2)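 Two-fold, ten-point dilutions in 7H9 with 2% DMSO; mid-log culture diluted to OD600=0.1 (1×10^7 CFU/mL). Incubated 3 days at 37 °C, shaking 110 RPM; growth = Day 3 minus Day 0 OD600, expressed as percentage of drug-free growth and plotted against concentration. Two biological replicates.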

Another assay has as its system Δarr M. abscessus. Description: MIC assay, isogenic arr-deleted strain. The following applies: arr-deleted strain; 90% growth inhibition. An outline of the steps:
as §2

[5] abbreviates: 90% inhibition of bacterial growth.

The structures appear in SMILES notation. Values after ≈ are worked out from the molar mass of the structure shown.

With `CO[C@H]1/C=C/O[C@@]2(C)Oc3c(C)c(O)c4c(c3C2=O)C2=NC3(CCN(CC(C)C)CC3)NC2=C(NC(=O)/C(C)=C/C=C/[C@H](C)[C@H](O)[C@@H](C)[C@@H](O)[C@@H](C)[C@H](OC(=O)c2ccccc2)[C@@H]1C)C4=O` [5a, 25-O-benzoyl rifabutin], the “Mab K21 MIC” value in assay [1] worked out at 0.098 µM. The MBC against M. abscessus Bamboo [2] is 0.30 µM (≈ 0.273 µg/mL); in the assay with M. abscessus Bamboo [4] (caseum surrogate, 5 days, 90% CFU reduction vs drug-free control, read-out: cMBC90), 8 µM (≈ 7.27 µg/mL). Moreover, the “Mab Bamboo MIC” value with M. abscessus Bamboo [3] (setting [5]) was 0.065 µM. The MIC (as a rule, the lowest concentration that inhibits growth of the organism) in the assay with M. abscessus Bamboo [3] (broth, M. abscessus Bamboo, Table 16, read-out: MIC) stood at 0.07 µM (≈ 0.0636 µg/mL); in the assay with M. abscessus ATCC 19977 (M. abscessus ATCC 19977, 90% growth inhibition, read-out: WT Mab MIC), 0.053 µM (≈ 0.0482 µg/mL). For the same compound, in the assay with M. abscessus Bamboo [4] (5-day assays), the cMBC90/bMBC90 was 26.7. In addition, in the assay with RFB-R1 M. abscessus (RNAP point mutation), the “activity against rifamycin-resistant mutant RFB-R1” value is “lost detectable activity”. Moreover, the “RFB-R1 M. abscessus MIC” value in the assay with RFB-R1 M. abscessus (rpoB H447Y mutant, 90% inhibition) is >100 µM. Also, the “Mab 19977 MIC” value with M. abscessus ATCC 19977 (setting [5]) was found to be 0.053 µM. Moreover, the MIC ratio in the assay on M. abscessus ATCC 19977 (WT MIC/Δarr strain MIC) came out at 0.9. In addition, the “Δarr Mab MIC” value in the assay on Δarr M. abscessus is 0.06 µM.

For the origin of these results see patent publication US20260109712A1, “RIFAMYCINS FOR NONTUBERCULOUS MYCOBACTERIA” (priority 2022, published 2026).
